How the values were obtained:
Type in all cases: cell-based
[1] = system: human small intestine-derived organoid; assay: Culture of organoids in absence of Matrigel with LATS kinase inhibitor; cell number by ATP (CellTiter-Glo 3D); conditions: both Lats-IN (10 μM) and MYF01-37 added
Description: (§1) In this experimental example, a human small intestine-derived organoid and human large intestine-derived organoid established in the presence of Matrigel (registered trademark) were cultured in the absence of Matrigel (registered trademark) and in the presence of a LATS kinase inhibitor (final concentration: 10 μM), and their dynamics were observed. The procedure was the same as in Experimental Example 1, except that each organoid was cultured in the absence of Matrigel (registered trademark).
The upper left panel of FIG. 3 is a photograph of a control (Ctrl) human small intestine-derived organoid cultured in the absence of Lats-IN, and the upper center panel of FIG. 3 is a photograph of a human small intestine-derived organoid cultured in the presence of Lats-IN. The scale bar is 100 μm. […] The vertical axis of the graph represents luminescence intensity (relative value) indicating the amount of ATP present. […]
(§2) FIG. 8 presents graphs showing the results of measuring the proliferation of the human small intestine-derived and human large intestine-derived organoids in the absence of Lats-IN (Ctrl), in the presence of Lats-IN (Lats-IN), in the presence of Lats-IN and MYF01-37 (Lats-IN+MYF), and in the presence of MYF01-37 (MYF). The cell proliferation was measured by measuring ATP using a commercially available kit (product name “CellTiter-Glo 3D,” Promega Corporation). The vertical axis of the graph represents luminescence intensity (relative value) indicating the amount of ATP present. […]
(§3) FIG. 26 presents graphs showing the results of measuring cell number in each organoid after 6 days of culture by measuring ATP using a commercially available kit (product name “CellTiter-Glo 3D,” Promega Corporation). The vertical axis of the graph represents luminescence intensity (relative value) indicating the amount of ATP present.

[2] = system: human large intestine-derived organoid; assay: as above; conditions: both Lats-IN (10 μM) and MYF01-37 added
Description: as §1
The lower left panel of FIG. 3 is a photograph of a control (Ctrl) human large intestine-derived organoid cultured in the absence of Lats-IN, and the lower center panel of FIG. 3 is a photograph of a human large intestine-derived organoid cultured in the presence of Lats-IN. The scale bar is 100 μm. The lower right panel of FIG. 3 is a graph showing the results of measuring cell number in the human large intestine-derived organoids cultured in the presence of the control (Ctrl) and Lats-IN. The vertical axis of the graph represents luminescence intensity (relative value) indicating the amount of ATP present. […]
as §2, §3

[3] = system: primary human liver cells (EpCAM-negative); assay: Establishment of liver cell organoids in absence of Matrigel; conditions: for establishment of human liver cell organoids: proliferation medium with both 20 μM TDI-011536 and 20 ng/ml Oncostatin M
Description: Frozen primary human liver cells were suspended in Advanced DMEM/F-12 medium and thawed. Two types of primary human liver cells, Line 1 and Line 2, were used.
Subsequently, each of the thawed primary human liver cells was stained with an APC-labeled mouse anti-human EpCAM antibody, and EpCAM-negative cells were collected using a cell sorter. The collected cells were then suspended in proliferation medium supplemented with 20 μM TDI-011536 and seeded into an ultra-low attachment 96-well plate at 3,000 to 4,000 cells/well. The cells were then cultured to obtain liver cell organoids. In addition, for comparison, cells were also prepared using proliferation medium supplemented with no TDI-011536 or no Oncostatin M.
The passaging of liver cell organoids in the absence of Matrigel (registered trademark) was performed as follows. First, calcium ions and magnesium ions were chelated using 1 mM EDTA/phosphate buffered saline (PBS). Subsequently, the liver cell organoids were supplemented with TrypLE Express (Thermo Fisher Scientific) and incubated at 37° C. for 5 minutes to dissociate them into single cells.
The collected cells were then suspended in proliferation medium supplemented with 20 μM TDI-011536 and seeded into an ultra-low attachment 96-well plate at 2,000 cells/well.
The scale bar is 500 μm. FIG. 24 presents graphs showing the results of measuring changes in cell proliferation over time. In FIG. 24, the vertical axes of the graphs represent cell proliferation (fold increase), and the horizontal axes indicate the number of days of culture. In FIGS. 23 and 24, “OSM” represents Oncostatin M, and “Lats IN” represents the LATS kinase inhibitor (TDI-011536).

[4] = system: human liver cell organoids; assay: Culturing liver cell organoids in absence of Matrigel; number of viable cells (CellTiter-Glo 3D); conditions: for number of viable cells, higher than control group: day 6 after seeding
Description: Human liver cell organoids, established from primary human liver cells, were supplemented with TrypLE Express (Thermo Fisher Scientific) and incubated at 37° C. for 5 minutes to dissociate them into single cells.
The cells were then collected and suspended in proliferation medium separately supplemented with 2, 5, 10, 20, or 50 μM TDI-011536 (CAS No. 2687970-96-1), and […] seeded into an ultra-low attachment 96-well plate at 2,000 cells/well. The preferred seeding density is 2,000 to 4,000 cells/well. In addition, cells in proliferation medium supplemented with no TDI-011536 were prepared as a control.
The proliferation medium was a medium consisting of a basal medium (Advanced DMEM/F-12 medium, 10 mM HEPES, 2 mM GlutaMAX, 100 U penicillin, 100 μg/mL streptomycin) supplemented with 10% afamin-Wnt-3A conditioned medium, 2% R-spondin 1 conditioned medium, 2% Noggin conditioned medium, and 20 ng/ml Oncostatin M.
On day 6 after seeding, the number of viable cells in the human liver cell organoids was measured using a commercially available kit (product name “CellTiter-Glo 3D,” Promega Corporation).

Row | Molecule | cell proliferation (ATP luminescence) when TEAD inhibited [1] | cell proliferation (ATP luminescence) when TEAD inhibited [2] | duration for which established organoids could be cultured ([3]; 20 μM TDI-011536 and Oncostatin M) | establishment of human liver cell organoids [3] | number of viable cells, higher than control group ([4]; 20 μM) | number of viable cells, higher than control group ([4]; 50 μM) | number of viable cells (words, FIG. 22) ([4]; adding the LATS kinase inhibitor)
1 | C=CC(=O)N1CCC(C)(Nc2cccc(C(F)(F)F)c2)C1 (centres unmarked) [MYF01-37] | inhibited | inhibited |  |  |  |  | 
2 | O=C(N=c1scc(CO)n1Cc1ccccc1)c1c[nH]c2ncccc12 [TDI-011536] |  |  | at least two months | successfully established | 16 fold | 17 fold | increase in the number of viable cells was observed
3 | Oncostatin M: cytokine of a cytokine family that binds to gp130 (protein, UniProt P13725 26-221, looked up) Oncostatin-M: AAIGSCSKEYRVLLGQLQKQTDLMQDTSRLLDPYIRIQGLDVPKLREHCRERPGAFPSEETLRGLGRRGFLQTLNATLGCVLHRLADLEQRLPKAQDLERSGLNIEDLEKLQMARPNILGLRNNIYCMAQLLDNSDTAEPTKAGRGASQPPTPTPASDAFQRKLEGCRFLHGYHRFMHSVGRVFSKWGESPNRSRR |  |  |  | successfully established |  |  | 
